In patent US20210038607A1, “OXADIAZOLYLTHIOPHENE DERIVATIVES USEFUL AS HISTONE DEACETYLASE INHIBITORS” (Karus Therapeutics Limited, priority 2018, published 2021):

Assays:
[1] = target: T1, Human HDAC10 (Homo sapiens, UniProt Q969S8); assay: HDAC10 biochemical assay, AMC-labeled peptide substrate; conditions: read-out: HDAC Isoform IC50 (nM) 10
T1 construct: Human HDAC10 (a.a. 1-481); GST (N); His (C); host or cells: baculovirus expression system
T1 sequence (Q969S8 1-481): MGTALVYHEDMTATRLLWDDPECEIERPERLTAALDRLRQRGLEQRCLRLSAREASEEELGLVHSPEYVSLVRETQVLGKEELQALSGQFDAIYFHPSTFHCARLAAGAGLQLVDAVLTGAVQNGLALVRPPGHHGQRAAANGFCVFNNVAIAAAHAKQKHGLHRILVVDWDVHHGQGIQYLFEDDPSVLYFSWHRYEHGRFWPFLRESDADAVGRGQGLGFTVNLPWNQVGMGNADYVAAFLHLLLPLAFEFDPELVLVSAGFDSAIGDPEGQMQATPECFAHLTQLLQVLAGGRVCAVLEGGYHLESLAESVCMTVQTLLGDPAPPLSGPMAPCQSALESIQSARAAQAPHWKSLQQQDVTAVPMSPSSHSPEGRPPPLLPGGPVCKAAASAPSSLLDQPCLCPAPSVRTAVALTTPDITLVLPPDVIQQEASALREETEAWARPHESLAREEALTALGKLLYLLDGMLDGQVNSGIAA
Protocol: (§1) Activity against all zinc-dependent HDACs 1 to 11 was assessed by using an acetylated AMC-labeled peptide substrate. The substrate RHKK(Ac)AMC was used for HDAC1, HDAC2, HDAC3, HDAC6 and HDAC10; the substrate used for HDAC8 was RHK(Ac)K(Ac)AMC. Activity against the class IIa HDACs (HDAC4, 5, 7, 9) and HDAC11 was determined using a class IIa-specific substrate, BOC-Lys(trifluoroacetyl)-AMC (“Trifluoroacetyl Lysine”; see Lahm et al, 2007, PNAS, 104, 17335-17340). All assays were based on the AMC-labeled substrate and developer combination.
(§2) The protocol involved a two-step reaction: first, the substrate with the acetylated lysine side chain is incubated with a sample containing HDAC activity, to produce the deacetylated products, which are then digested in the second step by the addition of developer to produce the fluorescent signal proportional to the amount of deacetylated substrates.
Human HDAC10 (a.a. 1-481), GenBank Accession No. NM_032019 with N-terminal GST tag and C-terminal His tag, MW=78 kDa, expressed in baculovirus expression system.
(§3) Assay Buffer: 50 mM Tris-HCl, pH8.0, 137 mM NaCl, 2.7 mM KCl, 1 mM MgC2. Before use, 1 mg/mL BSA and DMSO are added.
HDAC10: 12 ng/ul HDAC10 and 50 μM HDAC substrate are in the reaction buffer with 1% DMSO final. Incubate for 2 hours at 30° C.
(§4) Stage 1: Deacetylation of substrate by incubation of HDAC enzymes with compounds
(§5) Stage 2: Development by addition of Developer to digest the deacetylated substrate, and generate the fluorescent colour; Detection: 360/460 Ex/Em

[2] = target: T2, Human HDAC11 (Homo sapiens, UniProt Q96DB2); assay: HDAC11 biochemical assay, class IIa-specific substrate; conditions: read-out: HDAC Isoform IC50 (nM) 11
T2 construct: Human HDAC11 (full length); His (N); host or cells: baculovirus expression system
T2 sequence (Q96DB2 1-347): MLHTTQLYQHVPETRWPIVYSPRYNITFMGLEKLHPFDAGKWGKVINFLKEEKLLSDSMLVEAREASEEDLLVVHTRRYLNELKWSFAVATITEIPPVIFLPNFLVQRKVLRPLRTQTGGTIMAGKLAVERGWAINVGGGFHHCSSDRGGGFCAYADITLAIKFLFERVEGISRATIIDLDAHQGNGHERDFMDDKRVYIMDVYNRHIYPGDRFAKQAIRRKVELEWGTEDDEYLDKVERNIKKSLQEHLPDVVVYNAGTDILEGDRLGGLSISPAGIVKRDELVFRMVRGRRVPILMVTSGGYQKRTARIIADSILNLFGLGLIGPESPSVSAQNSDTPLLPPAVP
Protocol: as §1, §2
Human HDAC11 (full length) (GenBank Accession No. NM_024827) with N-terminal His tag, MW=42.9 kDa, expressed in baculovirus expression system.
as §3
HDAC11: 5 ng/ul HDAC11 and 50 μMHDAC substrate are in the reaction buffer with 1% DMSO final. Incubate for 30 minutes at 30° C.
as §4, §5

Row | Structure (SMILES) | IC50 [1] [nM] | IC50 [2] [nM]
1 | FC(F)(F)c1cnc(N(Cc2ccc(-c3noc(C(F)(F)F)n3)s2)c2cnccn2)cn1 [Example BK, N-(Pyrazin-2-yl)-5-(trifluoromethyl)-N-({5-[5-(trifluoromethyl)-1,2,4-oxadiazol-3-yl]thiophen-2-yl}methyl)pyrazin-2-amine] | > 10000 | > 10000
2 | COc1cnc(N(Cc2ccc(-c3noc(C(F)(F)F)n3)s2)c2cnccn2)cn1 [Example BI, 5-Methoxy-N-(pyrazin-2-yl)-N-({5-[5-(trifluoromethyl)-1,2,4-oxadiazol-3-yl]thiophen-2-yl}methyl)pyrazin-2-amine] | > 10000 | > 10000
3 | Cc1cncc(N(Cc2ccc(-c3noc(C(F)(F)F)n3)s2)c2cnccn2)n1 [Example BP, 6-Methyl-N-(pyrazin-2-yl)-N-({5-[5-(trifluoromethyl)-1,2,4-oxadiazol-3-yl]thiophen-2-yl}methyl)pyrazin-2-amine] | > 10000 | > 10000
4 | FC(F)c1cnnc(N(Cc2ccc(-c3noc(C(F)(F)F)n3)s2)c2cnccn2)c1 [Example GV, 5-(Difluoromethyl)-N-(pyrazin-2-yl)-N-({5-[5-(trifluoromethyl)-1,2,4-oxadiazol-3-yl]thiophen-2-yl}methyl)pyridazin-3-amine] | > 10000 | > 10000
5 | FC(F)(F)c1nc(-c2ccc(CN(c3cnccn3)c3cc(-c4ccccn4)cnn3)s2)no1 [Example GM, N-(Pyrazin-2-yl)-5-(pyridin-2-yl)-N-({5-[5-(trifluoromethyl)-1,2,4-oxadiazol-3-yl]thiophen-2-yl}methyl)pyridazin-3-amine] | > 10000 | > 10000

The next lines start with the values.

Row | IC50 [1] [nM] | IC50 [2] [nM] | Structure (SMILES)
6 | > 10000 | > 10000 | O=C(c1cnnc(N(Cc2ccc(-c3noc(C(F)(F)F)n3)s2)c2cnccn2)c1)N1CC2CCC(C1)O2 [Example GA, 5-{8-Oxa-3-azabicyclo[3.2.1]octane-3-carbonyl}-N-(pyrazin-2-yl)-N-({5-[5-(trifluoromethyl)-1,2,4-oxadiazol-3-yl]thiophen-2-yl}methyl)pyridazin-3-amine]
7 | > 10000 | > 10000 | Cc1cnnc(N(Cc2ccc(-c3noc(C(F)(F)F)n3)s2)c2cnccn2)c1 [Example GN, 5-Methyl-N-(pyrazin-2-yl)-N-({5-[5-(trifluoromethyl)-1,2,4-oxadiazol-3-yl]thiophen-2-yl}methyl)pyridazin-3-amine]
8 | > 10000 | > 10000 | CC(=O)Nc1cnnc(N(Cc2ccc(-c3noc(C(F)(F)F)n3)s2)c2cnccn2)c1 [Example FM, N-{6-[(Pyrazin-2-yl)({5-[5-(trifluoromethyl)-1,2,4-oxadiazol-3-yl]thiophen-2-yl}methyl)amino]pyridazin-4-yl}acetamide]
9 | > 10000 | > 10000 | O=C(c1cnnc(N(Cc2ccc(-c3noc(C(F)(F)F)n3)s2)c2cnccn2)c1)N1CC2(COC2)C1 [Example FZ, 5-{2-Oxa-6-azaspiro[3.3]heptane-6-carbonyl}-N-(pyrazin-2-yl)-N-({5-[5-(trifluoromethyl)-1,2,4-oxadiazol-3-yl]thiophen-2-yl}methyl)pyridazin-3-amine]
10 | > 10000 | > 10000 | O=C(c1cnnc(N(Cc2ccc(-c3noc(C(F)(F)F)n3)s2)c2cnccn2)c1)N1CCC(F)(F)CC1 [Example FY, 5-(4,4-Difluoropiperidine-1-carbonyl)-N-(pyrazin-2-yl)-N-({5-[5-(trifluoromethyl)-1,2,4-oxadiazol-3-yl]thiophen-2-yl}methyl)pyridazin-3-amine]
11 | > 10000 | > 10000 | CC1(c2cnnc(N(Cc3ccc(-c4noc(C(F)(F)F)n4)s3)c3cnccn3)c2)COC1 [Example GT, 5-(3-Methyloxetan-3-yl)-N-(pyrazin-2-yl)-N-({5-[5-(trifluoromethyl)-1,2,4-oxadiazol-3-yl]thiophen-2-yl}methyl)pyridazin-3-amine]
